Consider one compound from patent US20200165194A1, “ADDITIVE COMPOSITION FOR CULTURE MEDIUM, ADDITIVE COMPOUND FOR CULTURE MEDIUM, AND METHOD FOR CULTURE OF CELLS OR TISSUE USING SAME” (NISSAN CHEMICAL CORPORATION, priority 2017, published 2020).

Each structure is given as a SMILES string. Like-named read-outs stand apart in the source and are kept apart here.

Type in all cases: cell-based
Data set [1] concerns Human umbilical vein endothelial cells. As to the kind of experiment: Vascular endothelial cell, 3D culture, ATP assay (Experimental Example 14). Conditions: human umbilical vein endothelial cells under three-dimensional conditions. Here is the method:
Human umbilical vein endothelial cells (manufactured by PromoCell) were precultured in Endothelial Cell proliferation Medium (manufactured by PromoCell) medium (single layer culture). The above-mentioned cells in the logarithmic growth phase were washed with PBS, DetachKit (manufactured by PromoCell) was added, and adherent cells were detached by incubating at 37° C. for 3 min. The medium was added and the mixture was centrifuged and resuspended in the same medium.
(§1) The aforementioned cells were suspended in respective deacylated gellan gum-containing or not containing media (deacylated gellan gum concentration was 0.015 w/v %), and seeded in a 96 well low attachment U-bottom plate (manufactured by Corning, #4520, deacylated gellan gum-free medium), or a low attachment flat bottom plate (manufactured by Corning, #3474, deacylated gellan gum-containing medium) at a cell concentration of 700-2000 cells/90 μL/well (all 3D culture). […] The amount of each compound solution to be added was 10 μL/well. As a control, a DMSO solution dissolved in a medium was added (DMSO final concentration 0.1%).

In data set [2] the test system is Bone marrow-derived human mesenchymal stem cells (BM-hMSC). As to the kind of experiment: Human mesenchymal stem cell-2: 3D, EZSPHERE and 2D culture, ATP assay (Experimental Example 10). The settings on record: for viability at 1 µM / viability at 5 µM / viability at 10 µM / viability at 20 µM: Homo sapiens, Mesenchymal stem cells, 96 h, BM-hMSC, 4 days, non-addition = 100%, read-out: relative value of RLU (number of viable cells). Here is the method:
Bone marrow-derived human mesenchymal stem cells (BM-hMSC, manufactured by PromoCell) were precultured by a single layer culture method (2D) using a mesenchymal stem cell proliferation medium (manufactured by PromoCell). In three-dimensional culture method (3D), hMSC was suspended in a medium composition added with deacylated gellan gum, and seeded in a […] flat bottom Ultr-low Attachment surface plate (manufactured by Corning Incorporated, #3474) at 6000 cells/90 μL/well. In the three-dimensional culture method using EZSPHERE (EZSPHERE), hMSC was suspended in a deacylated gellan gum-free medium composition, and seeded in a 96-well EZSPHERE plate (manufactured by AGC TECHNO GLASS CO., LTD., #4860-900) at 2000 cells/90 μL/well. In 2D, hMSC was suspended in a deacylated gellan gum-free medium composition, and seeded in a 96-well flat bottom plate (manufactured by Corning Incorporated, #3585) at 2000 cells/90 μL/well. […] As a control, DMSO was added at a final concentration of 0.1%.

Data set [3] deals with human alveolar basal epithelial adenocarcinoma-derived cell line A549. As to the kind of experiment: Various human cancer cells-2, 3D culture, ATP assay (Experimental Example 6). The settings on record: 4 days. How it is done: (§2) Various human-derived cancer cells were precultured (single layer culture) in respective media shown below. […] The above-mentioned cells in the logarithmic growth phase were washed with PBS, a 0.25 w/v % trypsin-1 mmol/L EDTA (ethylenediaminetetraacetic acid) solution (manufactured by Wako Pure Chemical Industries, Ltd.) was added, and adherent cells were detached by incubating at 37° C. for 1-5 min. Each medium was added and the mixture was centrifuged. After resuspension in the same medium, each cell was recovered.
as §1, with “aforementioned various” for “aforementioned”, “700-12000” for “700-2000”, “0.1%). […] When compared with the compound no-addition (control), one showing a value of not more than 119% as -, one showing a value of not less than 120% as ◯, and one showing a value of not less than 150% as ⊚ are shown in the eleventh table and the twelfth table. Unperformed test is left blank.” for “0.1%).”

Data set [4] has as its system human ovarian cancer cell line SKOV3. The description is as above. Conditions: 4 days. How it is done:
as §2
as §1, with “aforementioned various” for “aforementioned”, “700-12000” for “700-2000”, “0.1%). […] When compared with the compound no-addition (control), one showing a value of not more than 119% as -, one showing a value of not less than 120% as ◯, and one showing a value of not less than 150% as ⊚ are shown in the eleventh table and the twelfth table. Unperformed test is left blank.” for “0.1%).”

In another data set the test system is hiPS cell line 253G1. As to the kind of experiment: Human pluripotent stem cell (hiPS cell), EZSPHERE plate, ATP assay (Experimental Example 13). Here is the method:
hiPS cell line 253G1 (purchased from RIKEN) was cultured on a dish coated with vitronectin VTN-N (manufactured by Thermo Fisher Scientific) using mTeSR1 (registered trade mark) medium (manufactured by STEMCELL Technologies). The above-mentioned cells in the proliferation phase were washed with PBS (manufactured by Fujifilm Corporation Wako Pure Chemical Industries, Ltd.), TrypLE Select (registered trade mark) (manufactured by Thermo Fisher Scientific) was added and the mixture was incubated at 37° C. for 3 min to remove the detaching solution. The medium was added and the cells were detached by pipetting. Thereafter, the supernatant was removed by centrifugation.
The aforementioned cells were suspended in a medium containing 10 μM Y-27632 (manufactured by Fujifilm Corporation Wako Pure Chemical Industries, Ltd.) and seeded in a 96-well EZSPHERE plate (manufactured by AGC TECHNO GLASS CO., LTD., #4860-900) at a cell concentration of 10000 cells/200 μL/well. […] The amount of each compound solution to be added was 2 μL/well. As a control, a DMSO solution dissolved in a medium was added (DMSO final concentration 0.05%). The medium was exchanged by half the volume every day, and each compound solution was also added to make the compound concentration constant.

[5] abbreviates: low attachment U-bottom plate, 5 μM.
Where [6] appears, read: low attachment U-bottom plate, 10 μM.
[7] abbreviates: low attachment flat bottom plate (gellan gum medium), 5 μM.
Where [8] appears, read: low attachment flat bottom plate (gellan gum medium), 10 μM.

For `CC/C(=N\NC(=O)CNc1cccc(O)c1)c1ccc(O)c(C)c1O` [k-1:D-1], the “proliferation activity (in words)” value is reported as “promoted proliferation activity in human umbilical vein endothelial cells” in data set [1], “promoted proliferation activity of BM-hMSC” in data set [2] (three-dimensional cell culture conditions) and “promoted proliferation activity in human pluripotent stem cells” with hiPS cell line 253G1 (human pluripotent stem cells under three-dimensional conditions). In addition, the viability at 1 µM is 111% in data set [2] (2D), 170% in data set [2] (3D (deacylated gellan gum)) and 169% in data set [2] (EZSPHERE plate). Moreover, the figures for the viability at 5 µM in data set [2] (2D), in data set [2] (3D (deacylated gellan gum)) and in data set [2] (EZSPHERE plate) were 125%, 640% and 310%, respectively. Moreover, the figures for the viability at 10 µM in data set [2] (2D), in data set [2] (3D (deacylated gellan gum)) and in data set [2] (EZSPHERE plate) were 112%, 771% and 339%, respectively. The viability at 20 µM in data set [2] (2D) is 92%; in data set [2] (3D (deacylated gellan gum)), 688%; in data set [2] (EZSPHERE plate) it was 275%. In addition, the “number of viable cells (RLU), relative value to control (100%)” value in data set [3] (setting [5]), in data set [3] (setting [6]), in data set [3] (setting [7]), in data set [3] (setting [8]), in data set [4] (setting [5]) and in data set [4] (setting [6]) was “⊙” each time. The “number of viable cells (RLU), relative value to control (100%)” value in data set [4] (setting [7]) and in data set [4] (setting [8]) was “⊙” throughout. Besides, the “relative value (%)” value in the data set on hiPS cell line 253G1 (hiPS 253G1, EZSPHERE plate, 5 μM, 3 days, RLU of DMSO addition = 100%) was found to be 207%.
